Entries after “also recorded” stand apart in the source; their conditions may differ.
Columns and labels:
Sprague-Dawley male rats [1] = assay: Place conditioning to 10 mg/kg cocaine at P60 after juvenile drug exposure; format: in vivo; settings: for place conditioning to cocaine-associated environment (pre- vs. post-conditioning): tested at P60, 10 mg/kg cocaine
Protocol: Juvenile Sprague-Dawley male rats were treated with MPH (2 mg/kg, i.p. twice daily), ±7-OHDPAT (0.3 mg/kg, i.p. twice daily), Naf (0.05, 0.5 and 5 mg/kg; i.p. twice daily) or VEH (i.p. twice daily) between the ages of P20 and P35 (Andersen et al., Nat. Neurosci., 5:13-14 (2002)). The MPH dose was selected on the basis of previous studies (see Andersen et al., Nat. Neurosci., 5:13-14 (2002); Bolanos et al., Biol. Psychiatry, 54:1317-1329 (2003); and Mague et al., Biol. Psychiatry, 57:120-125 (2005)), unpublished observations that we find similar behavioral effects if MPH is given i.p. or orally at this dose, and evidence that it approximates a clinically relevant dose in humans based on plasma levels (see Wargin et al., J. Pharmacol. Exp. Ther., 226:382-386 (1983); and Kuczenski, R. & Segal, D. S. J. Neurosci., 22:7264-7271 (2002)). Clinically therapeutic doses of MPH yield plasma levels between 8 and 40 ng/mL (Swanson et al., Behay. Brain Res., 130:73-78 (2002); Teicher et al., Ann. N. Y. Acad. Sci., 1071:313-323 (2006)), with 0.5 mg/kg i.p., achieving plasma levels of 36 ng/mL within 5 min in rats (Berridge et al., Biol. Psychiatry, 60:1111-1120 (2006)). Doses for juvenile exposure to ±7-OHDPAT are based on Neisewander et al., Neuropsychopharmacology, 29:1479-1487 (2004), and cortical microinjections of 10 µg/side were derived from Boulay et al. Prog. Neuropsychopharmacol. Biol. Psychiatry, 24:39-49 (2000). Naf doses below 1 mg/kg have negligible D2 receptor occupancy (Sautel et al., J. Pharmacol. Exp. Ther., 275:1239-1246 (1995)) and are behaviorally effective (Richtand et al., Brain Res., 867:239-242 (2000)). Subjects were weighed daily at 09.00 h and injected with their assigned drug; the second injection was administered 4 h later at 13.00 h. This regimen is designed to match the twice-daily dosing used by children, taking into account the higher metabolic rates of rats (Wargin et al., J. Pharmacol. Exp. Ther., 226:382-386 (1983)). After the second drug administration on P35, the rats received no further treatments until behavioral testing at P60.
Rats treated between P20 and P35 with either Naf (0, 0.05, 0.5 or 5.0 mg/kg; n=7-9), ±7-OHDPAT (0.3 mg/kg; n=9), MPH (2 mg/kg; n=9), or a combination of 2 mg/kg MPH and 0.05 mg/kg Naf (MPH/Naf; n=8) were tested at P60 for place conditioning to 10 mg/kg cocaine. According to standard laboratory methods (Andersen et al., Nat. Neurosci., 5:13-14 (2002); Carlezon, Methods Mol. Med., 84:243-249 (2003)), unbiased place conditioning chambers consisted of two large (24×18×33) side compartments separated by a small (12×18×33 cm) middle compartment. Screening was conducted for 30 min on Day 1. Rats were placed in the middle compartment and allowed to freely explore the apparatus. […] Two days of conditioning (with two sessions per day) occurred on Days 2 and 3 for 60 min (Andersen et al., Nat. Neurosci., 5:13-14 (2002); Carlezon, Methods Mol. Med., 84:243-249 (2003)). During the conditioning sessions, rats received a 1 mL/kg i.p. injection of VEH in the morning (09.00 h) and confined to one side. The rats were then returned to the home cage. Four hours later, rats received 10 mg/kg cocaine and confined to the other side. Sides differed in floor texture, wall colors and lighting, and assignments were counterbalanced. On Day 4, rats were permitted to freely explore the entire apparatus for 30 min in a drug-free state.

Sprague-Dawley male rats [2] = assay: Locomotor activity at 60 days old after juvenile ±7-OHDPAT exposure; format: in vivo; settings: juvenile ±7-OHDPAT 0.3 mg/kg P20-P35, vs VEH
Protocol: FIG. 6. Locomotor activity in response to a 10 mg/kg challenge with cocaine on the second day of cocaine conditioning in VEH- and ±7-OHDPAT-treated subjects (n=7-8 animals per group). *P<0.05 comparing the 10 mg/kg cocaine groups.
Juvenile Sprague-Dawley male rats were treated with MPH (2 mg/kg, i.p. twice daily), ±7-OHDPAT (0.3 mg/kg, i.p. twice daily), Naf (0.05, 0.5 and 5 mg/kg; i.p. twice daily) or VEH (i.p. twice daily) between the ages of P20 and P35 (Andersen et al., Nat. Neurosci., 5:13-14 (2002)). […]
To further investigate the functional role of the D3 receptor in juvenile psychostimulant treatment, animals were pre-pubertally treated with the D3-preferring agonist ±7-OHDPAT, the D3 antagonist Naf or a MPH/Naf combination. […] Next, juvenile manipulations of the D3 receptor on place conditioning were assessed and compared with each other. […]

Sprague-Dawley male rats [3] = assay: Place conditioning to 10 mg/kg cocaine at P60 after juvenile drug exposure; format: in vivo; settings: 10 µg/side into MPFCx during conditioning
[4] = system: mature and immature animals; settings: cited from earlier work
D2 receptor = settings: Naf doses below 1 mg/kg; cited from earlier work

Row | SMILES | place conditioning to 10 mg/kg cocaine associated environment (pre- vs. post-conditioning) (Sprague-Dawley male rats [1]; juvenile exposure P20-P35: MPH 2 mg/kg, ±7-OHDPAT 0.3 mg/kg, or MPH 2 mg/kg + Naf 0.05 mg/kg, tested at P60) | baseline locomotor activity (Sprague-Dawley male rats [2]; 60 days old, P>0.9) | locomotor response to 10 mg/kg cocaine challenge (Sprague-Dawley male rats [2]; second day of cocaine conditioning, P<0.05) | place conditioning to cocaine after ±7-OHDPAT microinjection into the MPFCx (Sprague-Dawley male rats [3]; MPH-exposed subjects) | place conditioning to cocaine after ±7-OHDPAT microinjection into the MPFCx (Sprague-Dawley male rats [3]; MPH-exposed subjects, listed as ±7 OHDPAT) | place conditioning to cocaine after ±7-OHDPAT microinjection into the MPFCx (Sprague-Dawley male rats [3]; VEH-exposed subjects) | place conditioning to cocaine after ±7-OHDPAT microinjection into the MPFCx (Sprague-Dawley male rats [3]; VEH-exposed subjects, listed as ±7 OHDPAT) | locomotor activity [4] | place conditioning to cocaine-associated environment (pre- vs. post-conditioning) (Sprague-Dawley male rats [1]; juvenile Naf 0.05 mg/kg i.p. twice daily P20-P35) | place conditioning to cocaine-associated environment (pre- vs. post-conditioning) (Sprague-Dawley male rats [1]; juvenile Naf 0.5 mg/kg i.p. twice daily P20-P35) | place conditioning to cocaine-associated environment (pre- vs. post-conditioning) (Sprague-Dawley male rats [1]; juvenile Naf 5.0 mg/kg i.p. twice daily P20-P35) | D2 receptor occupancy (D2 receptor)
1 | CCCN(CCC)C1CCc2ccc(O)cc2C1 (racemic) [±7-OHDPAT, ±7-hydroxy-N,N-di-n-propyl-2-aminotetralin] | Place aversion; also recorded: aversion to the cocaine-associated environment | did not differ from VEH control animals | significantly reduced | reversing the aversion to cocaine; also recorded: produced a place preference to cocaine | significant preference for cocaine-associated environments | no greater effect | significant preference for cocaine-associated environments | inhibit locomotor activity |  |  |  | 
2 | CCCCN1CCCC1CNC(=O)c1cc(C#N)c2ccccc2c1OC (stereo not shown) [Naf, Nafadotride] |  |  |  |  |  |  |  |  | significant preference | significant preference | did not form such a preference | negligible
3 | CCCN1CCO[C@@H]2c3cc(O)ccc3OC[C@H]21 [PD 128907] |  |  |  |  |  |  |  | inhibit locomotor activity |  |  |  | 
